Test results published in patent US6603046B1, “Bis-aromatic a,β-unsaturated ketones” (Lica Pharmaceuticals A/S, priority 1992, dated 2003).
Converted amounts (≈) assume the structure as drawn. “And” between values parts separate entries of the source, which are not always exact repeats. Equal values may be shown once.

What was measured:
L. major promastigotes [1] = experiment: L. major promastigotes from 4-days cultures, 3H-thymidine uptake (Examples 5, 14); type: cell-based, Leishmania major; conditions: Leishmania major, Table 14.1, read-out: percentage inhibition of promastigotes (upper figure)
In short: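 Promastigotes harvested on day 4 of culture were exposed to compound, then pulsed with 100 μC 3H-thymidine for a further 18 h. Cells were collected on filter paper, washed, and incorporated radioactivity counted by scintillation.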

L. major promastigotes [2] = experiment: Electron microscopy of L. major promastigotes (Example 11); type: cell-based, Leishmania major; conditions: for diameter of mitochondria, Maximum (mean) / diameter of mitochondria, Minimum (mean): 24 hours
[3] = test system: chloroquine-sensitive P. falciparum 3D7A strain; experiment: In vitro growth of P. falciparum 3D7A, 3H-hypoxanthine uptake (Example 15); type: cell-based, Plasmodium falciparum; conditions: for Percentage inhibition of 3H-hypoxanthine uptake (mean ± SEM): title: percentage inhibition of 3H-hypoxanthine uptake
P. yoelii strain YM = P. yoelii strain YM infection in mice, parasitemia and mortality (Example 16); type: in vivo, BALB/c mice; conditions: for % parasitemia, Mean: orally 100 mg/kg/dose 3 and 24 h after infection
[4] = D + 2, 10 mg per kg twice daily days +1 to +4
[5] = D + 3, 10 mg per kg twice daily days +1 to +4
[6] = D + 4, 10 mg per kg twice daily days +1 to +4
[7] = D + 5, 10 mg per kg twice daily days +1 to +4
[8] = D + 6, 10 mg per kg twice daily days +1 to +4
[9] = D + 7, 10 mg per kg twice daily days +1 to +4
[10] = D + 8, 10 mg per kg twice daily days +1 to +4
[11] = D + 9, 10 mg per kg twice daily days +1 to +4

C=CC(C)(C)c1cc(/C=C/C(=O)c2ccc(O)cc2)c(OC)cc1O [Licochalcone A, licochalcone A]
inhibition at 0.5 µg/mL (L. major promastigotes [1]; 0.5 μg/ml): 12% | inhibition at 1 µg/mL (L. major promastigotes [1]; 1 μg/ml): 25% | inhibition at 5 µg/mL (L. major promastigotes [1]; 5 μg/ml): 64% | inhibition at 10 µg/mL (L. major promastigotes [1]; 10 μg/ml): 92% | morphological changes of promastigotes (L. major promastigotes [2]; 1 μg/ml): no morphological changes | diameter of mitochondria, Maximum (mean) (L. major promastigotes [2]; 1 μg/ml): 203 nm | diameter of mitochondria, Minimum (mean) (L. major promastigotes [2]; 1 μg/ml): 104 nm | diameter of mitochondria, Maximum (mean) (L. major promastigotes [2]; 5 μg/ml): 548 nm | diameter of mitochondria, Minimum (mean) (L. major promastigotes [2]; 5 μg/ml): 165 nm | percentage of L. major showing cytoplasmic granules (L. major promastigotes [2]; 5 μg/ml, control 50%): 70% | diameter of mitochondria, Maximum (mean) (L. major promastigotes [2]; 10 μg/ml): 1043 nm | diameter of mitochondria, Minimum (mean) (L. major promastigotes [2]; 10 μg/ml): 294 nm | IC50 ([3]; Plasmodium falciparum, read-out: concentration in which growth was retarded by 50%): 0.5 to 1 µg/mL (≈ 1.48 to 2.96 µM) | Percentage inhibition of 3H-hypoxanthine uptake (mean ± SEM) ([3]; 0.1 μg/ml): 15.0 ± 3.0% | Percentage inhibition of 3H-hypoxanthine uptake (mean ± SEM) ([3]; 0.5 μg/ml): 39.0 ± 6.0% | Percentage inhibition of 3H-hypoxanthine uptake (mean ± SEM) ([3]; 1 μg/ml): 69.0 ± 4.0% | Percentage inhibition of 3H-hypoxanthine uptake (mean ± SEM) ([3]; 5 μg/ml): 98.0 ± 0.001% | Percentage inhibition of 3H-hypoxanthine uptake (mean ± SEM) ([3]; 10 μg/ml): 98.0 ± 0.0001% | Parasitemia, mean (P. yoelii strain YM; [4]): 0.1% | Parasitemia, single mice (P. yoelii strain YM; [4]): 0.1% and 0.01% | Parasitemia, mean (P. yoelii strain YM; [5]): 0.2% | Parasitemia, single mice (P. yoelii strain YM; [5]): 0.00% and 0.5% and 0.01% | Parasitemia, mean (P. yoelii strain YM; [6]): 0.4% | Parasitemia, single mice (P. yoelii strain YM; [6]): 0.00% and 1.2% | Parasitemia, single mice (P. yoelii strain YM; D + 4, 10 mg/kg/day in 2 injections, days +1 to +6, 10 mg/kg/day): 1.5% and 4.0% | Parasitemia, single mice (P. yoelii strain YM; D + 4, 20 mg/kg/day in 2 injections, days +1 to +6, 20 mg/kg/day): 0.01% and 0.0% | Parasitemia, single mice (P. yoelii strain YM; D + 4, 40 mg/kg/day in 2 injections, days +1 to +6, 40 mg/kg/day): 0.1% and 0.5% | % parasitemia (mean ± SEM) (P. yoelii strain YM; D + 4, i.p. 5 mg/kg/day twice daily, 3 h after infection and D + 1 to D + 3): 1.6 ± 0.6% | % parasitemia (mean ± SEM) (P. yoelii strain YM; D + 4, i.p. 10 mg/kg four times daily D + 4 to D + 7): 14.2 ± 3.8% | % parasitemia (mean ± SEM) (P. yoelii strain YM; D + 4, i.p. 10 mg/kg twice daily D-1, D0): 1.2 ± 1.1% | % parasitemia (mean ± SEM) (P. yoelii strain YM; D + 4, i.p. 10 mg/kg/day twice daily, 3 h after infection and D + 1 to D + 3): 1.1 ± 1.0% | % parasitemia (mean ± SEM) (P. yoelii strain YM; D + 4, i.p. 15 mg/kg/day twice daily, 3 h after infection and D + 1 to D + 3): 2.0 ± 2.0% | % parasitemia, Mean (P. yoelii strain YM; D + 4): 1.0% | Parasitemia, mean (P. yoelii strain YM; [7]): 0.7% | Parasitemia, single mice (P. yoelii strain YM; [7]): 0.1% and 1.5% and 0.00% | Parasitemia, single mice (P. yoelii strain YM; D + 5, 10 mg/kg/day in 2 injections, days +1 to +6, 10 mg/kg/day): 1.5% and 3.0% | Parasitemia, single mice (P. yoelii strain YM; D + 5, 20 mg/kg/day in 2 injections, days +1 to +6): 0.0% | Parasitemia, single mice (P. yoelii strain YM; D + 5, 40 mg/kg/day in 2 injections, days +1 to +6, 40 mg/kg/day): 0.5% and 1.0% | Parasitemia, mean (P. yoelii strain YM; [8]): 2.2% | Parasitemia, single mice (P. yoelii strain YM; [8]): 1.0% and 4.0% and 1.5% | Parasitemia, single mice (P. yoelii strain YM; D + 6, 10 mg/kg/day in 2 injections, days +1 to +6, 10 mg/kg/day): 2.0% and 2.5% | % parasitemia (mean ± SEM) (P. yoelii strain YM; D + 6, 10 mg/kg/day twice daily, 3 h after infection, D + 1 to D + 5): 0.1 ± 0.1% | % parasitemia (mean ± SEM) (P. yoelii strain YM; D + 6, 15 mg/kg/day twice daily, 3 h after infection, D + 1 to D + 5): 0% | Parasitemia, single mice (P. yoelii strain YM; D + 6, 20 mg/kg/day in 2 injections, days +1 to +6): 0.0% | Parasitemia, single mice (P. yoelii strain YM; D + 6, 40 mg/kg/day in 2 injections, days +1 to +6, 40 mg/kg/day): 1.0% and 1.5% | % parasitemia (mean ± SEM) (P. yoelii strain YM; D + 6, i.p. 5 mg/kg/day twice daily, 3 h after infection and D + 1 to D + 3): 13.8 ± 4.4% | % parasitemia (mean ± SEM) (P. yoelii strain YM; D + 6, i.p. 10 mg/kg four times daily D + 4 to D + 7): 6.6 ± 1.5% | % parasitemia (mean ± SEM) (P. yoelii strain YM; D + 6, i.p. 10 mg/kg twice daily D-1, D0): 9.7 ± 0.7% | % parasitemia (mean ± SEM) (P. yoelii strain YM; D + 6, i.p. 10 mg/kg/day twice daily, 3 h after infection and D + 1 to D + 3): 14.2 ± 4.6% | % parasitemia (mean ± SEM) (P. yoelii strain YM; D + 6, i.p. 15 mg/kg/day twice daily, 3 h after infection and D + 1 to D + 3): 10.4 ± 7.4% | Parasitemia, mean (P. yoelii strain YM; [9]): 3.0% | Parasitemia, single mice (P. yoelii strain YM; [9]): 2.0% and 4.0% and 3.0% | Parasitemia, single mice (P. yoelii strain YM; D + 7, 10 mg/kg/day in 2 injections, days +1 to +6, 10 mg/kg/day): 8.0% and 10.0% | Parasitemia, single mice (P. yoelii strain YM; D + 7, 20 mg/kg/day in 2 injections, days +1 to +6, 20 mg/kg/day): 0.01% and 0.05% | Parasitemia, single mice (P. yoelii strain YM; D + 7, 40 mg/kg/day in 2 injections, days +1 to +6, 40 mg/kg/day): 4.5% and 5.8% | % parasitemia, Mean (P. yoelii strain YM; D + 7): 9.7% | Parasitemia, mean (P. yoelii strain YM; [10]): 6.7% | Parasitemia, single mice (P. yoelii strain YM; [10]): 4.0% and 8.0% | Parasitemia, single mice (P. yoelii strain YM; D + 8, 10 mg/kg/day in 2 injections, days +1 to +6, 10 mg/kg/day): 18.0% and 20.0% | % parasitemia (mean ± SEM) (P. yoelii strain YM; D + 8, 10 mg/kg/day twice daily, 3 h after infection, D + 1 to D + 5): 0.7 ± 0.4% | % parasitemia (mean ± SEM) (P. yoelii strain YM; D + 8, 15 mg/kg/day twice daily, 3 h after infection, D + 1 to D + 5): 0% | Parasitemia, single mice (P. yoelii strain YM; D + 8, 20 mg/kg/day in 2 injections, days +1 to +6, 20 mg/kg/day): 1.0% and 1.5% | Parasitemia, single mice (P. yoelii strain YM; D + 8, 40 mg/kg/day in 2 injections, days +1 to +6, 40 mg/kg/day): 12.0% and 15.0% | % parasitemia (mean ± SEM) (P. yoelii strain YM; D + 8, i.p. 5 mg/kg/day twice daily, 3 h after infection and D + 1 to D + 3): 36.6 ± 5.7% | % parasitemia (mean ± SEM) (P. yoelii strain YM; D + 8, i.p. 10 mg/kg four times daily D + 4 to D + 7): 17 ± 6.2% | % parasitemia (mean ± SEM) (P. yoelii strain YM; D + 8, i.p. 10 mg/kg twice daily D-1, D0): 27.8 ± 16.1% | % parasitemia (mean ± SEM) (P. yoelii strain YM; D + 8, i.p. 10 mg/kg/day twice daily, 3 h after infection and D + 1 to D + 3): 30.2 ± 6.4% | % parasitemia (mean ± SEM) (P. yoelii strain YM; D + 8, i.p. 15 mg/kg/day twice daily, 3 h after infection and D + 1 to D + 3): 22 ± 11.6% | Parasitemia, mean (P. yoelii strain YM; [11]): 23.0% | Parasitemia, single mice (P. yoelii strain YM; [11]): 20.0% and 18.0% and 31.0%
